Data published in US6869589B1, “Cryptate compounds and methods for diagnosis and therapy” (Australian Nuclear Science & Technology Organization, priority 1999, dated 2005).

Assay: Biodistribution of ^64Cu complexes in balb/c mice
Description: The biodistribution of the ^64Cu complexes of compounds (1), (3) and (4) (0.10 ml intravenous injection) were evaluated in balb/c mice (5 animals per time point) at 3, 5, 10, 15, 20 and 30 minute time intervals. Biodistribution studies were performed in duplicate.

% injected dose per gram (BLADDER, 3 MIN): 24.36 % INJECTED DOSE PER GRAM | % injected dose per gram (BLADDER, 5 MIN): 31.12 % INJECTED DOSE PER GRAM | % injected dose per gram (BLADDER, 10 MIN): 27.75 % INJECTED DOSE PER GRAM | % injected dose per gram (BLADDER, 15 MIN): 15.17 % INJECTED DOSE PER GRAM | % injected dose per gram (BLADDER, 20 MIN): 23.29 % INJECTED DOSE PER GRAM | % injected dose per gram (BLADDER, 30 MIN): 122.93 % INJECTED DOSE PER GRAM | % injected dose per gram (BLOOD, 3 MIN): 8.68 % INJECTED DOSE PER GRAM | % injected dose per gram (BLOOD, 5 MIN): 6.32 % INJECTED DOSE PER GRAM | % injected dose per gram (BLOOD, 10 MIN): 5.45 % INJECTED DOSE PER GRAM | % injected dose per gram (BLOOD, 15 MIN): 2.48 % INJECTED DOSE PER GRAM | % injected dose per gram (BLOOD, 20 MIN): 2.63 % INJECTED DOSE PER GRAM | % injected dose per gram (BLOOD, 30 MIN): 1.14 % INJECTED DOSE PER GRAM | % injected dose per gram (BONE, 3 MIN): 2.25 % INJECTED DOSE PER GRAM | % injected dose per gram (BONE, 5 MIN): 1.87 % INJECTED DOSE PER GRAM | % injected dose per gram (BONE, 10 MIN): 1.79 % INJECTED DOSE PER GRAM | % injected dose per gram (BONE, 15 MIN): 1.23 % INJECTED DOSE PER GRAM | % injected dose per gram (BONE, 20 MIN): 1.25 % INJECTED DOSE PER GRAM | % injected dose per gram (BONE, 30 MIN): 0.78 % INJECTED DOSE PER GRAM | % injected dose per gram (GIT, 3 MIN): 2.75 % INJECTED DOSE PER GRAM | % injected dose per gram (GIT, 5 MIN): 2.21 % INJECTED DOSE PER GRAM | % injected dose per gram (GIT, 10 MIN): 1.85 % INJECTED DOSE PER GRAM | % injected dose per gram (GIT, 15 MIN): 1.11 % INJECTED DOSE PER GRAM | % injected dose per gram (GIT, 20 MIN): 1.05 % INJECTED DOSE PER GRAM | % injected dose per gram (GIT, 30 MIN): 1.16 % INJECTED DOSE PER GRAM | % injected dose per gram (HEART, 3 MIN): 3.11 % INJECTED DOSE PER GRAM | % injected dose per gram (HEART, 5 MIN): 2.25 % INJECTED DOSE PER GRAM | % injected dose per gram (HEART, 10 MIN): 2.27 % INJECTED DOSE PER GRAM | % injected dose per gram (HEART, 15 MIN): 0.89 % INJECTED DOSE PER GRAM | % injected dose per gram (HEART, 20 MIN): 1.23 % INJECTED DOSE PER GRAM | % injected dose per gram (HEART, 30 MIN): 0.40 % INJECTED DOSE PER GRAM | % injected dose per gram (KIDNEY, 3 MIN): 23.18 % INJECTED DOSE PER GRAM | % injected dose per gram (KIDNEY, 5 MIN): 11.50 % INJECTED DOSE PER GRAM | % injected dose per gram (KIDNEY, 10 MIN): 12.80 % INJECTED DOSE PER GRAM | % injected dose per gram (KIDNEY, 15 MIN): 6.77 % INJECTED DOSE PER GRAM | % injected dose per gram (KIDNEY, 20 MIN): 7.77 % INJECTED DOSE PER GRAM | % injected dose per gram (KIDNEY, 30 MIN): 4.95 % INJECTED DOSE PER GRAM | % injected dose per gram (LIVER, 3 MIN): 2.29 % INJECTED DOSE PER GRAM | % injected dose per gram (LIVER, 5 MIN): 1.50 % INJECTED DOSE PER GRAM | % injected dose per gram (LIVER, 10 MIN): 1.42 % INJECTED DOSE PER GRAM | % injected dose per gram (LIVER, 15 MIN): 0.82 % INJECTED DOSE PER GRAM | % injected dose per gram (LIVER, 20 MIN): 0.69 % INJECTED DOSE PER GRAM | % injected dose per gram (LIVER, 30 MIN): 0.50 % INJECTED DOSE PER GRAM | % injected dose per gram (LUNGS, 3 MIN): 6.51 % INJECTED DOSE PER GRAM | % injected dose per gram (LUNGS, 5 MIN): 4.45 % INJECTED DOSE PER GRAM | % injected dose per gram (LUNGS, 10 MIN): 3.91 % INJECTED DOSE PER GRAM | % injected dose per gram (LUNGS, 15 MIN): 2.06 % INJECTED DOSE PER GRAM | % injected dose per gram (LUNGS, 20 MIN): 2.73 % INJECTED DOSE PER GRAM | % injected dose per gram (LUNGS, 30 MIN): 0.85 % INJECTED DOSE PER GRAM | % injected dose per gram (MUSCLE, 3 MIN): 1.81 % INJECTED DOSE PER GRAM | % injected dose per gram (MUSCLE, 5 MIN): 1.81 % INJECTED DOSE PER GRAM | % injected dose per gram (MUSCLE, 10 MIN): 2.39 % INJECTED DOSE PER GRAM | % injected dose per gram (MUSCLE, 15 MIN): 2.28 % INJECTED DOSE PER GRAM | % injected dose per gram (MUSCLE, 20 MIN): 1.17 % INJECTED DOSE PER GRAM | % injected dose per gram (MUSCLE, 30 MIN): 1.33 % INJECTED DOSE PER GRAM | % injected dose per gram (SKIN, 3 MIN): 5.82 % INJECTED DOSE PER GRAM | % injected dose per gram (SKIN, 5 MIN): 5.59 % INJECTED DOSE PER GRAM | % injected dose per gram (SKIN, 10 MIN): 5.48 % INJECTED DOSE PER GRAM | % injected dose per gram (SKIN, 15 MIN): 2.61 % INJECTED DOSE PER GRAM | % injected dose per gram (SKIN, 20 MIN): 2.96 % INJECTED DOSE PER GRAM | % injected dose per gram (SKIN, 30 MIN): 1.63 % INJECTED DOSE PER GRAM | % injected dose per gram (SPLEEN, 3 MIN): 2.09 % INJECTED DOSE PER GRAM | % injected dose per gram (SPLEEN, 5 MIN): 1.48 % INJECTED DOSE PER GRAM | % injected dose per gram (SPLEEN, 10 MIN): 1.54 % INJECTED DOSE PER GRAM | % injected dose per gram (SPLEEN, 15 MIN): 1.44 % INJECTED DOSE PER GRAM | % injected dose per gram (SPLEEN, 20 MIN): 0.69 % INJECTED DOSE PER GRAM | % injected dose per gram (SPLEEN, 30 MIN): 0.52 % INJECTED DOSE PER GRAM | % injected dose per gram (STOMACH, 3 MIN): 3.50 % INJECTED DOSE PER GRAM | % injected dose per gram (STOMACH, 5 MIN): 2.73 % INJECTED DOSE PER GRAM | % injected dose per gram (STOMACH, 10 MIN): 2.08 % INJECTED DOSE PER GRAM | % injected dose per gram (STOMACH, 15 MIN): 1.50 % INJECTED DOSE PER GRAM | % injected dose per gram (STOMACH, 20 MIN): 1.16 % INJECTED DOSE PER GRAM | % injected dose per gram (STOMACH, 30 MIN): 0.74 % INJECTED DOSE PER GRAM
SMILES: NC12CNCCNCC(N)(CNCCNC1)CNCCNC2.[64Cu+2] [^64Cu-labelled compound (1)]
